Columns and labels:
[1] = Cytotoxicity against rat PC-12 cells assessed as reduction in cell viability by MTT assay; assay type: toxicity, cell-based
[2] = Cytotoxicity against human HaCaT cells assessed as reduction in cell viability by MTT assay; assay type: toxicity, cell-based
[3] = tested on: PC-12; experiment: Neuroprotective activity against SNP induced rat PC-12 cells assessed as increase in cell viability at 10 uM preincubated for 2 hrs followed by SNP stimulation for 24 hrs by MTT assay relative to control; assay type: functional
[4] = tested on: PC-12; experiment: Neuroprotective activity against SNP induced rat PC-12 cells assessed as increase in cell viability at 1 uM preincubated for 2 hrs followed by SNP stimulation for 24 hrs by MTT assay relative to control; assay type: functional
[5] = tested on: PC-12; experiment: Neuroprotective activity against SNP induced rat PC-12 cells assessed as increase in cell viability at 5 uM preincubated for 2 hrs followed by SNP stimulation for 24 hrs by MTT assay relative to control; assay type: functional
[6] = Metabolic stability in human plasma assessed as parent compound remaining at 200 uM measured after 90 min by LC-MS/MS analysis relative to control; assay type: ADME, cell-free; conditions: read-out: Stability
[7] = Metabolic stability in human plasma assessed as parent compound remaining at 200 uM measured after 120 min by LC-MS/MS analysis relative to control; assay type: ADME, cell-free; conditions: read-out: Stability
[8] = Metabolic stability in human plasma assessed as parent compound remaining at 200 uM measured after 15 min by LC-MS/MS analysis relative to control; assay type: ADME, cell-free; conditions: read-out: Stability
[9] = Metabolic stability in human plasma assessed as parent compound remaining at 200 uM measured after 60 min by LC-MS/MS analysis relative to control; assay type: ADME, cell-free; conditions: read-out: Stability
[10] = Metabolic stability in human plasma assessed as half life at 200 uM by LC-MS/MS analysis relative to control; assay type: ADME, cell-free
[11] = tested on: Rattus norvegicus; experiment: Neuroprotective activity in Sprague-Dawley rat model of middle cerebral artery occlusion-induced ischemia-reperfusion injury assessed as decrease in cerebral infarct volume at 5 mg/kg, ip preincubated for 1 hrs followed by MCAO operation and further incubated with compound for 4 hrs after reperfusion by TTC staining based assay; assay type: functional; design: scale not given: the % may be the effect or the level left; conditions: time 5 hrs
[12] = Plasma protein binding in Sprague-Dawley rat plasma at 10 uM incubated for 6 hrs by LC-MS/MS based equilibrium dialysis method; assay type: ADME, cell-free; conditions: read-out: PPB (converted)
[13] = Plasma protein binding in human plasma at 10 uM incubated for 6 hrs by LC-MS/MS based equilibrium dialysis method; assay type: ADME, cell-free; conditions: read-out: PPB (converted)

Row | SMILES | IC50 [1] | IC50 [2] | Activity [3] | Activity [4] | Activity [5] | further results
1 | Oc1cc(C(F)(F)F)ccc1-c1nc(-c2ccccc2O)n(-c2cccc(C(F)(F)F)c2)n1 | 49.7 µM | 54.3 µM | 99.9% | 71.47% | 92.2% | –
2 | Oc1cc(C(F)(F)F)ccc1-c1nc(-c2ccccc2O)n(-c2ccccc2F)n1 | – | – | 100.18% | 63.42% | 86.63% | –
3 | Cc1ccc(-n2nc(-c3ccc(C(F)(F)F)cc3O)nc2-c2ccccc2O)cc1 | 113 µM | 81.8 µM | 102.45% | 71.49% | 94.12% | –
4 | CCc1ccc(-n2nc(-c3ccc(C(F)(F)F)cc3O)nc2-c2ccccc2O)cc1 | 147 µM | 57 µM | 106.61% | 64.43% | 95.36% | –
5 | Cc1ccc(-n2nc(-c3ccc(C(F)(F)F)cc3O)nc2-c2ccccc2O)c(C)c1 | 230 µM | 94.8 µM | 106.25% | 73.72% | 93.31% | –
6 | CC(C)[N+](C)(CCOC(=O)C1c2ccccc2Oc2ccccc21)C(C)C [PROPANTHELINE] | – | – | – | – | – | remaining at 1.5 h, 200 µM [6]: 17.3%; remaining at 2 h, 200 µM [7]: 2.41%; remaining at 0.25 h, 200 µM [8]: 63.4%; remaining at 1 h, 200 µM [9]: 34.5%; half-life at 200 µM [10]: 23.5 min
7 | COc1cccc(-n2nc(-c3ccc(C(F)(F)F)cc3O)nc2-c2ccccc2O)c1 | 56.4 µM | 81.1 µM | 105.81% | 68.27% | 96.76% | –
8 | Oc1cc(C(F)(F)F)ccc1-c1nc(-c2ccccc2O)n(-c2ccc(F)cc2)n1 | – | – | 99.83% | 67.16% | 86.71% | –
9 | CC(C)c1ccc(-n2nc(-c3ccc(C(F)(F)F)cc3O)nc2-c2ccccc2O)cc1 | 144 µM | 51.4 µM | 108% | 69.66% | 100.41% | –
10 | Oc1cc(C(F)(F)F)ccc1-c1nc(-c2ccccc2O)n(-c2ccc(Cl)cc2Cl)n1 | – | – | 95.21% | 68.99% | 86.73% | –
11 | Oc1cc(C(F)(F)F)ccc1-c1nc(-c2ccccc2O)n(-c2cc(F)cc(F)c2)n1 | 53.7 µM | 45.4 µM | 106.29% | 75.47% | 100.23% | –
12 | Oc1cc(C(F)(F)F)ccc1-c1nc(-c2ccccc2O)n(-c2ccc(Br)cc2)n1 | 66.8 µM | 29.6 µM | 100.49% | 69.35% | 89.76% | –
13 | COc1ccc(-n2nc(-c3ccc(C(F)(F)F)cc3O)nc2-c2ccccc2O)cc1 | – | – | 98.85% | 69.04% | 86.56% | –
14 | CC1=NN(c2ccccc2)C(=O)C1 [EDARAVONE] | – | – | 80.25% | 58.41% | 70.3% | Activity [11]: 12.77%
15 | Oc1cc(C(F)(F)F)ccc1-c1nc(-c2ccccc2O)n(-c2ccc(Cl)cc2)n1 | – | – | 96.09% | 67.99% | 87.25% | –
16 | CC(C)(C)c1ccc(-n2nc(-c3ccc(C(F)(F)F)cc3O)nc2-c2ccccc2O)cc1 | – | – | 81.14% | 67.29% | 77.77% | –
17 | COc1ccccc1-n1nc(-c2ccc(C(F)(F)F)cc2O)nc1-c1ccccc1O | – | – | 96.2% | 70.74% | 85.59% | –
18 | Oc1cc(C(F)(F)F)ccc1-c1nc(-c2ccccc2O)n(-c2ccc(C(F)(F)F)cc2)n1 | – | – | 101.67% | 70.66% | 90.51% | –
19 | CC(=O)N1CCN(c2ccc(OCC3COC(Cn4ccnc4)(c4ccc(Cl)cc4Cl)O3)cc2)CC1 (configuration not stated) [KETOCONAZOLE] | – | – | – | – | – | fraction unbound at 6 h, 10 µM [12]: 0.0032; fraction unbound at 6 h, 10 µM [13]: 0.0128
20 | Oc1cc(C(F)(F)F)ccc1-c1nc(-c2ccccc2O)n(-c2ccc(I)cc2)n1 | 73.3 µM | 32.1 µM | 104.51% | 70.13% | 94.41% | –
21 | Oc1cc(C(F)(F)F)ccc1-c1nc(-c2ccccc2O)n(-c2cc(C(F)(F)F)cc(C(F)(F)F)c2)n1 | – | – | 86.16% | 68.89% | 75.68% | –
22 | N#Cc1ccc(-n2nc(-c3ccc(C(F)(F)F)cc3O)nc2-c2ccccc2O)cc1 | – | – | 98.91% | 66.6% | 86.8% | –
23 | Oc1cc(C(F)(F)F)ccc1-c1nc(-c2ccccc2O)n(-c2ccc(F)cc2F)n1 | – | – | 97.86% | 65.92% | 83.53% | –
24 | Oc1cc(C(F)(F)F)ccc1-c1nc(-c2ccccc2O)n(-c2ccccc2Cl)n1 | – | – | 102.19% | 70.08% | 90.63% | –
25 | Oc1cc(C(F)(F)F)ccc1-c1nc(-c2ccccc2O)n(-c2cccc(F)c2)n1 | – | – | 98.25% | 67.24% | 87.66% | –
26 | Oc1cc(C(F)(F)F)ccc1-c1nc(-c2ccccc2O)n(-c2ccc(OC(F)(F)F)cc2)n1 | – | – | 92.54% | 65.49% | 84.94% | –
27 | Oc1cc(C(F)(F)F)ccc1-c1nc(-c2ccccc2O)n(-c2cccc(Cl)c2)n1 | – | – | 100.29% | 72.33% | 92.73% | –
28 | Oc1ccccc1-c1nc(-c2ccc(C(F)(F)F)cc2)no1 | – | – | 84.7% | 75.88% | 81.39% | –
29 | Oc1cc(C(F)(F)F)ccc1-c1nc(-c2ccccc2O)n(-c2ccccc2C(F)(F)F)n1 | – | – | 92.2% | 70.97% | 80.01% | –

Source: ChEMBL document CHEMBL5143655, “Synthesis and biological evaluation of 1,2,4-triazole derivatives as potential Nrf2 activators for the treatment of cerebral ischemic injury” (Eur J Med Chem, 2022)
